Like-named read-outs stand apart in the source and are kept apart here.
Experiments:
[1] = test system: p21 (WAF1/CIP1) gene; details: 10 nM DHT, MCF-7 cells transfected with AR
Experimental: (§3) A. MCF-7 cells were transfected using Superfect (Qiagen) with 2 μg of pSG5-AR with or without 4 μg of BRCA1, as indicated. Cells were cultured in the presence of 10 nM DHT or vehicle, as indicated. B. PC-3(AR2) cells were transfected under the same conditions as the MCF-7 cells in A. except that AR was not transfected. […] PC-3(AR2) cells transfected with BRCA1 were cultured in the presence of vehicle, 10 nM DHT, or 1 μM hydroxyflutamide (HF).
(§4) The ability of AR and BRCA1 to regulate the endogenous p21 (WAF1/CIP1) gene in MCF-7 breast cancer cells was examined.

[2] = test system: ZR-75-1 tumors; details: ovarectomized nude mice, estradiol and DHT pellets; expected result
Experimental: (§1) After the initial in vitro characterization of the ARKO cells, mouse xenograft experiments are performed. The ARKO cells are subcutaneously injected into ovarectomized nude mice and the parental cell lines serve as xenograft controls. This experiment allows for the comparison of AR positive and AR negative breast carcinoma cells in animals that carry a functional AR gene without the potential confounding effects of using differently derived tumor cell lines. Tumor growth rate is compared in ARKO and parental cell line recipients in response to estradiol treatment, DHT treatment, or combined administration of estradiol and DHT. […] In addition to growth rate, tumors are examined histologically to determine the morphology and degree of vascularization between ARKO cell tumors and tumors generated by the parental cell lines under the different hormonal regimes.
(§2) Female homozygous nude mice (obtained from the Jackson Laboratory) are ovarectomized. […] Ovarectomized mice are also implanted with 1.5 mg 90 day release progesterone hormonal tablets. Only the ovarian cancer based cell lines will be examined in progesterone treated animals. Animals will be subcutaneously injected with […] of the ARKO or parental cells at the time of hormonal implant Hormonal pellets will be replaced as required.

[3] = test system: ZR-ARKO derived tumors; details: ovarectomized nude mice, estradiol and DHT pellets; expected result
Experimental: as §1, §2

[4] = test system: p21 (WAF1/CIP1) gene; test: Endogenous p21 (WAF1/CIP1) gene expression in PC-3 (AR2) cells stably transfected with AR; format: cell-based
Experimental: as §3, §4

[5] = molecular target: T1, AR (Homo sapiens, UniProt P10275); test: AR transcriptional activity, MMTV-CAT reporter gene in DU145 cells transfected with AR with ARA70 or empty vector; format: cell-based; details: 10^-10 to 10^-6 M, presence or absence of ARA70
T1 construct: expressed in transfected cells; host or cells: DU145
T1 sequence (P10275 1-920): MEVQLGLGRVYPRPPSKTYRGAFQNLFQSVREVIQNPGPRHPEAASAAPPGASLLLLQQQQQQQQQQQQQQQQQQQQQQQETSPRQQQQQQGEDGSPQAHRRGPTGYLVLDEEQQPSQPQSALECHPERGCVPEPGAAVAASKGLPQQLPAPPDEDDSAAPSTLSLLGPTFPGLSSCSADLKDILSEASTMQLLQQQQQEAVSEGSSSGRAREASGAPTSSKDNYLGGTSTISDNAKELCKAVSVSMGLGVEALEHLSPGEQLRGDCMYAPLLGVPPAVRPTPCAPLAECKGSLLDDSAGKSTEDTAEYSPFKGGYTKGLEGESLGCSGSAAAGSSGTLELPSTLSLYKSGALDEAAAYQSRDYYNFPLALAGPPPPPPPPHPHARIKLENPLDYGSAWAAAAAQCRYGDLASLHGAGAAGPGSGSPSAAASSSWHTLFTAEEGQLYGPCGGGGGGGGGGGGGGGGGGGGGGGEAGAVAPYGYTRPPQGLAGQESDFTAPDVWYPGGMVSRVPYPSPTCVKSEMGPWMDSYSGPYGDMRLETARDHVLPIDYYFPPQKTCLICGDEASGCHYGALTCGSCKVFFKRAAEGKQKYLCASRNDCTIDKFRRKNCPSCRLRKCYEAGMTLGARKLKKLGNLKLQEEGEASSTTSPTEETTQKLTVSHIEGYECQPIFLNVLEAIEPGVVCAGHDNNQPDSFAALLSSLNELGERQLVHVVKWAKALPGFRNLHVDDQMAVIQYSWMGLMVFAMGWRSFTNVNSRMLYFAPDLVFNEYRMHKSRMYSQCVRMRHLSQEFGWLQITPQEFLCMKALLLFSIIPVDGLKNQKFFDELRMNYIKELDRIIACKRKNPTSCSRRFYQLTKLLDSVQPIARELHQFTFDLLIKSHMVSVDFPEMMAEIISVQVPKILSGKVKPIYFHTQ
Text: The DHT treatments were taken as the positive control. Data represents an average of three independent experiments.
PSA is an androgen target gene that is not transcriptionally activated by the ER (58).

C[C@]12CCC(=O)C[C@@H]1CC[C@@H]1[C@@H]2CC[C@]2(C)[C@@H](O)CC[C@@H]12 [DHT, 5α-dihydrotestosterone]
endogenous p21 (WAF1/CIP1) gene expression [1]: induced endogenous p21 (WAF1/CIP1) gene expression
estradiol-mediated proliferation of ZR-75-1 tumors [2]: expected to inhibit
estradiol induced proliferation of ZR-ARKO derived tumors in the presence of DHT [3]: expected to continue estradiol induced proliferation
endogenous p21 (WAF1/CIP1) gene expression ([4]; 10 nM DHT, PC-3 (AR2) cells): confirmed

C[C@]12CC[C@@H]3c4ccc(O)cc4C[C@@H](CCCCCCCCC[S+]([O-])CCCC(F)(F)C(F)(F)F)[C@H]3[C@@H]1CC[C@@H]2O (stereo partly drawn) [ICI182, 780]
induction of AR mediated transcription [5]: unable to induce AR mediated transcription

CC(C)(O)C(=O)Nc1ccc([N+](=O)[O-])c(C(F)(F)F)c1 [hydroxyflutamide]
effect on DHT induction of p21 (WAF1/CIP1) ([4]; 1 μM hydroxyflutamide, PC-3 (AR2) cells transfected with BRCA1): blocks the DHT induction

Reference: US20040261139A1, “Androgen receptor knock-out transgenic animals” (priority 2001, published 2004)
